Experiment [1] concerns Homo sapiens. As to the kind of experiment: Antidyslipidemic activity in obese, hypercholesterolemic patient assessed as reduction in LDL cholesterol at 100 ug administered QD for 2 weeks relative to control. It counts as functional. Also on record: scale not given: the % may be the effect or the level left.
The subject of another experiment is Rattus norvegicus. As to the kind of experiment: Antidyslipidemic activity in po dosed cholesterol fed rat assessed as reduction in cholesterol level administered QD. Type of experiment: functional.
Experiment [2] concerns the target T1, Thyroid hormone receptor beta (Homo sapiens, UniProt P10828).
T1 sequence (P10828 whole entry): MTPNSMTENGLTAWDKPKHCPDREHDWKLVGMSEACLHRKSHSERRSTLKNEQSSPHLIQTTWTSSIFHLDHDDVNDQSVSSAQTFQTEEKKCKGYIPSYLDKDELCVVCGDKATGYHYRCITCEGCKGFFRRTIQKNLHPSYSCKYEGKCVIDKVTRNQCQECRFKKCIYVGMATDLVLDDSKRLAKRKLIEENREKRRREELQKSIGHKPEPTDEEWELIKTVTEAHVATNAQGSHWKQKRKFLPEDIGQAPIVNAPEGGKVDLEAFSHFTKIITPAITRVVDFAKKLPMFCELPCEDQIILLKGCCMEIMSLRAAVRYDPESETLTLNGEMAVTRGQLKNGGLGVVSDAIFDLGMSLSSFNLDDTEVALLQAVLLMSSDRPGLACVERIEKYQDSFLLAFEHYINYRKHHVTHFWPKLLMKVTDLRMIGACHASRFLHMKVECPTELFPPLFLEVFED
Nature of the experiment: Binding affinity to TRbeta1.

Experiment [3] has as its target T2, Thyroid hormone receptor alpha (Homo sapiens, UniProt P10827).
T2 sequence (P10827 whole entry): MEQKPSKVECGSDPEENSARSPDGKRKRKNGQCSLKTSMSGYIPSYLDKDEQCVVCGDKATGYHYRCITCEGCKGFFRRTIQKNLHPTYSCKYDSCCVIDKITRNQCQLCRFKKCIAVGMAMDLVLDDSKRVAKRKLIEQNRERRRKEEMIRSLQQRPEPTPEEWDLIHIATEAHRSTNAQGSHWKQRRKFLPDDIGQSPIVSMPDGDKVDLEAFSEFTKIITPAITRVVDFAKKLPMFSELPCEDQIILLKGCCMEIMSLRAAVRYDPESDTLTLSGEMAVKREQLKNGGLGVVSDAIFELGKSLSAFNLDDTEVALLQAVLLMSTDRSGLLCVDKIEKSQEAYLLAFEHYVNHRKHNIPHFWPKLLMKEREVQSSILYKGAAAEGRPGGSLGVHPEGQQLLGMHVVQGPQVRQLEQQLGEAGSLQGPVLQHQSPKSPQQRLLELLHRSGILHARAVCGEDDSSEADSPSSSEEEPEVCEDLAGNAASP
As to the kind of experiment: Binding affinity to TRalpha1.

Experiment [4] has as its system Homo sapiens. Nature of the experiment: Antidyslipidemic activity in human assessed as reduction in LDL cholesterol at 100 ug administered QD relative to control. It counts as functional. Also on record: scale not given: the % may be the effect or the level left.

Turning to `CC(C)c1cc(Oc2c(Br)cc(NC(=O)CC(=O)O)cc2Br)ccc1O` [EPROTIROME], in the experiment with Homo sapiens [1], the Activity is on record as 40%. Regarding `Cc1cc(OCP2(=O)OCC[C@@H](c3cccc(Cl)c3)O2)cc(C)c1Cc1ccc(O)c(C(C)C)c1` (stereo partly drawn) [MB07811], the ED50 (usually the dose that gives a 50% effect, or the effect in half of the subjects) with Rattus norvegicus amounted to 0.4 mg/kg. For the same molecule, the Ki (as a rule, a measure of affinity in units of concentration, obtained from inhibition or displacement) in experiment [2] is 600 nM. For `O=C(O)Cc1cc(Cl)c(Oc2ccc(O)c(-c3ccccc3)c2)c(Cl)c1`, the EC50 – broadly, the concentration that produces a half-maximal response – was 152 nM in experiment [3] and 2.9 nM in experiment [2].

With `O=C(O)Cc1cc(Cl)c(Oc2ccc(O)c(C(=O)NCC(c3ccccc3)c3ccccc3)c2)c(Cl)c1`, the half-maximal effective concentration (EC50) in experiment [3] came to 18 nM; in experiment [2], 0.47 nM.

As for `Cc1cc(OCC(=O)O)cc(C)c1Cc1ccc(O)c(C(C)C)c1` [SOBETIROME], the Activity with Homo sapiens [4] stood at 41%.

Values taken from ChEMBL document CHEMBL2203261, “Selective thyromimetics using receptor and tissue selectivity approaches: prospects for dyslipidemia” (J Med Chem, 2012).
